# Columns and labels:
# [1] = Stability of the three components in rat plasma and tissues (QC samples); conditions: n = 5
# Protocol: The preparation of calibration standards was done as follows: The appropriate working solution was spiked into blank plasma or tissues to obtain concentrations of 75∼0.047 μg/mL for monotropein, 396∼1.54 μg/mL for rubiadin, and 596∼1.16 μg/mL for rubiadin 1-methyl ether. The QC concentrations for monotropein were 0.14 μg/mL, 2 μg/mL, and 28.1 μg/mL; for rubiadin, they were 1.6 μg/mL, 50.6 μg/mL, and 712.5 μg/mL; and for rubiadin 1-methyl ether, they were 3.9 μg/mL, 54.6 μg/mL, and 765 μg/mL. The QC samples used for the recovery, matrix effect, intra- and interday accuracy, precision, and stability studies were prepared in the same way as that of the calibration standards. The solutions were stored for one week at −20°C.
# The QC samples used for the recovery QC samples were used to judge the stability, and the storage conditions were as follows: (1) freeze-thaw stability, (2) at room temperature for 4 h, and (3) put into the autosampler for 8 h, and (4) at −20°C for 30 days. The permitted range was within 15%.
# [2] = Pharmacokinetics in rat plasma after oral administration of MO and SMO extract (UPLC-MS/MS); type: in vivo, Sprague-Dawley (SD) rats; conditions: for Cmax: male, Sprague-Dawley, rat, plasma, po, 40 g/kg; for Cmax / AUC (0-t) / AUC (0-∞) / CL/F / MRT (0-t) / T max / V/F / t1/2z: n = 6
# Protocol: For LC-MS/MS analysis, data acquisition and instrument control were performed using MassLynx 4.1 software (Waters Corp., Milford, MA, USA). The analysis column was an Acquity UPLC HSS T3 column (100 mm × 2.1 mm, 1.8 μm, Waters) with a temperature of 40°C. The mobile phase was acetonitrile containing 0.1% formic acid (A) and 0.1% formic acid aqueous solution (B). The elution gradient was 0.00–0.50 min with 2% B; 0.51–5.00 min with 2%–30% B; and 5.01–7.00 min with 40% B. The flow rate was 0.2 mL/min.
# The Waters triple quadruple mass spectrometer (Xevo TQD, Waters Corp., Milford, MA, USA) equipped with an electrospray ionization source (ESI) was used in negative ion mode. The desolvation gas was nitrogen with a flow rate of 500 L/h at a temperature of 250°C. All detected compounds were measured in multiple reaction monitoring (MRM) mode.
# 10 μL of IS working solution and 400 μL of methanol were added to 100 μL plasma. The solution was vortexed for 10 min and then centrifuged at 12,000 rpm for 5 min. The supernatant was shifted to another centrifugation tube and dried with nitrogen at 37°C. The residue was redissolved in 100 μL acetonitrile and centrifuged for 5 min at 12,000 rpm. Five microliters of supernatant was drawn and analyzed by UPLC-MS/MS.
# The SD rats (6, male) were housed at 22 ± 2°C and fasted for 12 h with drinking water available ad libitum. MO and SMO ethanol extract were orally administered at a dose of 40 g/kg (equivalent to 6.44 and 3.95 mg/kg of monotropein, 0.088 and 0.091 mg/kg of rubiadin, and 0.174 and 0.178 mg/kg of rubiadin 1-methyl ether). Blood samples (0.5 mL) were collected from the venous plexus of the eye socket at 0.083, 0.25, 0.5, 1.0, 1.5, 2.0, 2.5, 4.0, 6.0, 12.0, and 24 h under anesthesia. Then, the blood samples were centrifuged at 4500 rpm for 10 min, and then the plasma was immediately transferred to new tubes and stored at −80°C until analysis. The pharmacokinetic parameters were calculated using DAS software (3.0 version, China Food and Drug Administration) based on noncompartmental method. All data were recorded as mean ± SD.
# [3] = rat kidney, high Conc (rubiadin 4.63, rubiadin 1-methyl ether 3.49, monotropein 28.13 μg/mL)
# [4] = rat kidney, low Conc (rubiadin 0.21, rubiadin 1-methyl ether 0.15, monotropein 1.41 μg/mL)
# [5] = rat kidney, middle Conc (rubiadin 0.98, rubiadin 1-methyl ether 0.72, monotropein 6.2 μg/mL)
# [6] = rat liver, high Conc (rubiadin 4.63, rubiadin 1-methyl ether 3.49, monotropein 28.13 μg/mL)
# [7] = rat liver, low Conc (rubiadin 0.21, rubiadin 1-methyl ether 0.15, monotropein 1.41 μg/mL)
# [8] = rat liver, middle Conc (rubiadin 0.98, rubiadin 1-methyl ether 0.72, monotropein 6.2 μg/mL)
# [9] = rat lung, high Conc (rubiadin 4.63, rubiadin 1-methyl ether 3.49 μg/mL)
# [10] = rat lung, low Conc (rubiadin 0.21, rubiadin 1-methyl ether 0.15 μg/mL)
# [11] = rat lung, middle Conc (rubiadin 0.98, rubiadin 1-methyl ether 0.72 μg/mL)
# [12] = rat plasma, high Conc (rubiadin 712.5, rubiadin 1-methyl ether 765, monotropein 28.1 μg/mL)
# [13] = rat plasma, low Conc (rubiadin 3.6, rubiadin 1-methyl ether 3.9, monotropein 0.14 μg/mL)
# [14] = rat plasma, middle Conc (rubiadin 50.6, rubiadin 1-methyl ether 54.6, monotropein 2 μg/mL)
# [15] = rat small intestine, high Conc (rubiadin 4.63, rubiadin 1-methyl ether 3.49, monotropein 28.13 μg/mL)
# [16] = rat small intestine, low Conc (rubiadin 0.21, rubiadin 1-methyl ether 0.15, monotropein 1.41 μg/mL)
# [17] = rat small intestine, middle Conc (rubiadin 0.98, rubiadin 1-methyl ether 0.72, monotropein 6.2 μg/mL)
structure (smiles),measurement,setting,value
"COc1c(C)c(O)cc2c1C(=O)c1ccccc1C2=O [Rubiadin 1-methyl ether, rubiadin 1-methyl ether]","Stability RE%, At 25°C for 12 h",[1]; [3],−3.58%
same,"Stability RE%, Autosampler at 4°C for 24 h",[1]; [3],−0.36%
same,"Stability RE%, Freeze–thaw cycles",[1]; [3],−1.57%
same,"Stability RE%, −20°C for 30 days",[1]; [3],0.54%
same,"Stability RE%, At 25°C for 12 h",[1]; [4],0.35%
same,"Stability RE%, Autosampler at 4°C for 24 h",[1]; [4],−0.36%
same,"Stability RE%, Freeze–thaw cycles",[1]; [4],0.15%
same,"Stability RE%, −20°C for 30 days",[1]; [4],−5.1%
same,"Stability RE%, At 25°C for 12 h",[1]; [5],0.24%
same,"Stability RE%, Autosampler at 4°C for 24 h",[1]; [5],−0.68%
same,"Stability RE%, Freeze–thaw cycles",[1]; [5],−0.54%
same,"Stability RE%, −20°C for 30 days",[1]; [5],−2.49%
same,"Stability RE%, At 25°C for 12 h",[1]; [6],0.42%
same,"Stability RE%, Autosampler at 4°C for 24 h",[1]; [6],−0.66%
same,"Stability RE%, Freeze–thaw cycles",[1]; [6],−0.68%
same,"Stability RE%, −20°C for 30 days",[1]; [6],−2.58%
same,"Stability RE%, At 25°C for 12 h",[1]; [7],−2.1%
same,"Stability RE%, Autosampler at 4°C for 24 h",[1]; [7],0.54%
same,"Stability RE%, Freeze–thaw cycles",[1]; [7],−1.52%
same,"Stability RE%, −20°C for 30 days",[1]; [7],−0.58%
same,"Stability RE%, At 25°C for 12 h",[1]; [8],−3.42%
same,"Stability RE%, Autosampler at 4°C for 24 h",[1]; [8],−3.81%
same,"Stability RE%, Freeze–thaw cycles",[1]; [8],−5.42%
same,"Stability RE%, −20°C for 30 days",[1]; [8],−0.45%
same,"Stability RE%, At 25°C for 12 h",[1]; [9],−0.06%
same,"Stability RE%, Autosampler at 4°C for 24 h",[1]; [9],−2.42%
same,"Stability RE%, Freeze–thaw cycles",[1]; [9],−0.53%
same,"Stability RE%, −20°C for 30 days",[1]; [9],0.05%
same,"Stability RE%, At 25°C for 12 h",[1]; [10],−0.57%
same,"Stability RE%, Autosampler at 4°C for 24 h",[1]; [10],−8.51%
same,"Stability RE%, Freeze–thaw cycles",[1]; [10],−2.57%
same,"Stability RE%, −20°C for 30 days",[1]; [10],−1.54%
same,"Stability RE%, At 25°C for 12 h",[1]; [11],−5.71%
same,"Stability RE%, Autosampler at 4°C for 24 h",[1]; [11],−0.65%
same,"Stability RE%, Freeze–thaw cycles",[1]; [11],−4.85%
same,"Stability RE%, −20°C for 30 days",[1]; [11],−0.55%
same,"Stability RE%, At 25°C for 12 h",[1]; [12],−5.1%
same,"Stability RE%, Autosampler at 4°C for 24 h",[1]; [12],−3.14%
same,"Stability RE%, Freeze–thaw cycles",[1]; [12],−3.71%
same,"Stability RE%, −20°C for 30 days",[1]; [12],−0.86%
same,"Stability RE%, At 25°C for 12 h",[1]; [13],−1.79%
same,"Stability RE%, Autosampler at 4°C for 24 h",[1]; [13],−1.49%
same,"Stability RE%, Freeze–thaw cycles",[1]; [13],−0.94%
same,"Stability RE%, −20°C for 30 days",[1]; [13],−3.26%
same,"Stability RE%, At 25°C for 12 h",[1]; [14],−4.21%
same,"Stability RE%, Autosampler at 4°C for 24 h",[1]; [14],−1.65%
same,"Stability RE%, Freeze–thaw cycles",[1]; [14],−1.35%
same,"Stability RE%, −20°C for 30 days",[1]; [14],−0.23%
same,"Stability RE%, At 25°C for 12 h",[1]; [15],0.25%
same,"Stability RE%, Autosampler at 4°C for 24 h",[1]; [15],0.48%
same,"Stability RE%, Freeze–thaw cycles",[1]; [15],−0.74%
same,"Stability RE%, −20°C for 30 days",[1]; [15],1.35%
same,"Stability RE%, At 25°C for 12 h",[1]; [16],−0.69%
same,"Stability RE%, Autosampler at 4°C for 24 h",[1]; [16],−0.42%
same,"Stability RE%, Freeze–thaw cycles",[1]; [16],−6.57%
same,"Stability RE%, −20°C for 30 days",[1]; [16],−1.25%
same,"Stability RE%, At 25°C for 12 h",[1]; [17],−0.85%
same,"Stability RE%, Autosampler at 4°C for 24 h",[1]; [17],−0.62%
same,"Stability RE%, Freeze–thaw cycles",[1]; [17],−0.57%
same,"Stability RE%, −20°C for 30 days",[1]; [17],−0.25%
same,Cmax compared among the three components,[2]; especially in the SMO groups,the highest
same,Cmax,[2]; oral MO extract 40 g/kg,432 ± 37 ng/mL
same,Cmax,[2]; oral SMO extract 40 g/kg,509 ± 35.1 ng/mL
same,AUC (0-t),[2]; oral MO extract 40 g/kg,1059.49 ± 98.081 μg/L ∗ h
same,AUC (0-∞),[2]; oral MO extract 40 g/kg,1074.351 ± 102.019 μg/L ∗ h
same,CL/F,[2]; oral MO extract 40 g/kg,0.037 ± 0.372 L/g/h
same,MRT (0-t),[2]; oral MO extract 40 g/kg,2.908 ± 0.151 H
same,T max,[2]; oral MO extract 40 g/kg,0.5 ± 0.00 H
same,V/F,[2]; oral MO extract 40 g/kg,0.287 ± 0.067 L/g
same,t1/2z,[2]; oral MO extract 40 g/kg,5.379 ± 1.514 H
same,AUC (0-t),[2]; oral SMO extract 40 g/kg,1244.329 ± 82.805 μg/L ∗ h
same,AUC (0-∞),[2]; oral SMO extract 40 g/kg,1253.526 ± 84.691 μg/L ∗ h
same,CL/F,[2]; oral SMO extract 40 g/kg,0.032 ± 0.210 L/g/h
same,MRT (0-t),[2]; oral SMO extract 40 g/kg,2.855 ± 0.15 H
same,T max,[2]; oral SMO extract 40 g/kg,0.5 ± 0.00 H
same,V/F,[2]; oral SMO extract 40 g/kg,0.196 ± 0.363 L/g
same,t1/2z,[2]; oral SMO extract 40 g/kg,4.27 ± 0.865 H
same,"Cmax and AUC0-t, SMO groups compared with the MO group",[2]; oral extract 40 g/kg,elevated remarkably

# From PMC7036132, “Effects of the Salt-Processing Method on the Pharmacokinetics and Tissue Distribution of Orally Administered Morinda officinalis How. Extract” (Journal of Analytical Methods in Chemistry, 2020)
